These results are taken from patent US12077503B2, “Substituted cyclic amides and their use as herbicides” (FMC CORPORATION, priority 2015, dated 2024).

What all share (format): in vivo
In test [1] the test system is barnyardgrass (Echinochloa crus-galli). Description: Test A preemergence. The note with it: Echinochloa crus-galli, pre-emergence, 240 h; for pest or weed control at 125 g/ha: 125 g ai/ha, preemergence, 0 to 100 scale where 0 is no effect and 100 is complete control, read-out: Barnyardgrass plant response rating; for pest or weed control at 500 g/ha: 500 g ai/ha, Preemergence, visual injury vs untreated controls after approximately 10 d, read-out: Barnyardgrass plant response rating (0 to 100 scale where 0 is no effect and 100 is complete control). In short, it runs like this: (§1)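 Visual injury, scored on a 0–100 scale relative to untreated controls, was recorded about 10 d after application. Treatments were a preemergence soil spray over planted seeds or a postemergence spray on plants at the one- to two-leaf stage, 2 to 10 cm tall, all in loam soil–sand blend in the greenhouse.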

The subject of test [2] is ryegrass, Italian (Italian ryegrass, Lolium multiflorum). Description: Test A preemergence. The note with it: Lolium multiflorum, pre-emergence, 240 h; for pest or weed control at 125 g/ha: 125 g ai/ha, preemergence, 0 to 100 scale where 0 is no effect and 100 is complete control, read-out: Ryegrass, Italian plant response rating; for pest or weed control at 500 g/ha: 500 g ai/ha, Preemergence, visual injury vs untreated controls after approximately 10 d, read-out: Ryegrass, Italian plant response rating (0 to 100 scale where 0 is no effect and 100 is complete control). In short, it runs like this:
as §1

The subject of test [3] is Kochia (Kochia scoparia). Description: Test A preemergence. The note with it: Bassia scoparia, pre-emergence, 240 h; for pest or weed control at 125 g/ha: 125 g ai/ha, preemergence, 0 to 100 scale where 0 is no effect and 100 is complete control, read-out: Kochia plant response rating; for pest or weed control at 500 g/ha: 500 g ai/ha, Preemergence, visual injury vs untreated controls after approximately 10 d, read-out: Kochia plant response rating (0 to 100 scale where 0 is no effect and 100 is complete control). An outline of the steps:
as §1

For test [4], the system named is pigweed (Amaranthus retroflexus). Description: Test A preemergence. To be noted: Amaranthus retroflexus, pre-emergence, 240 h; for pest or weed control at 125 g/ha: 125 g ai/ha, preemergence, 0 to 100 scale where 0 is no effect and 100 is complete control, read-out: Pigweed plant response rating; for pest or weed control at 500 g/ha: 500 g ai/ha, Preemergence, visual injury vs untreated controls after approximately 10 d, read-out: Pigweed plant response rating (0 to 100 scale where 0 is no effect and 100 is complete control).

The subject of test [5] is giant foxtail (Setaria faberii). Description: Test A preemergence. The note with it: Setaria faberi, pre-emergence, 240 h; for pest or weed control at 125 g/ha: 125 g ai/ha, preemergence, 0 to 100 scale where 0 is no effect and 100 is complete control, read-out: Foxtail, Giant plant response rating; for pest or weed control at 500 g/ha: 500 g ai/ha, Preemergence, visual injury vs untreated controls after approximately 10 d, read-out: Foxtail, Giant plant response rating (0 to 100 scale where 0 is no effect and 100 is complete control). An outline of the steps: as §1

For test [6], the system named is ragweed (common ragweed, Ambrosia elatior). The test is described as follows: Test A preemergence. To be noted: Ambrosia artemisiifolia, pre-emergence, 240 h; for pest or weed control at 125 g/ha: 125 g ai/ha, preemergence, 0 to 100 scale where 0 is no effect and 100 is complete control, read-out: Ragweed plant response rating; for pest or weed control at 500 g/ha: 500 g ai/ha, Preemergence, visual injury vs untreated controls after approximately 10 d, read-out: Ragweed plant response rating (0 to 100 scale where 0 is no effect and 100 is complete control). In short, it runs like this: as §1

Test [7] concerns wheat (Triticum aestivum). Description: Test A postemergence. The note with it: Triticum aestivum, post-emergence, 240 h, 125 g ai/ha, postemergence, visual injury rating after approximately 10 d; read-out: Wheat plant response rating (0 to 100 scale, 0 no effect, 100 complete control). An outline of the steps:
as §1

Test [8] has as its system barnyardgrass (Echinochloa crus-galli). The test is described as follows: Test A postemergence. The note with it: Echinochloa crus-galli, post-emergence, 240 h, 125 g ai/ha, postemergence, visual injury rating after approximately 10 d; read-out: Barnyardgrass plant response rating (0 to 100 scale, 0 no effect, 100 complete control). An outline of the steps: as §1
Test [9] relates to ryegrass, Italian (Italian ryegrass, Lolium multiflorum). The test is described as follows: Test A postemergence. To be noted: Lolium multiflorum, post-emergence, 240 h, 125 g ai/ha, postemergence, visual injury rating after approximately 10 d; read-out: Ryegrass, Italian plant response rating (0 to 100 scale, 0 no effect, 100 complete control). An outline of the steps:
as §1

In test [10] the test system is blackgrass (Alopecurus myosuroides). Description: Test A postemergence. To be noted: Alopecurus myosuroides, post-emergence, 240 h, 125 g ai/ha, postemergence, visual injury rating after approximately 10 d; read-out: Blackgrass plant response rating (0 to 100 scale, 0 no effect, 100 complete control). An outline of the steps: as §1
In test [11] the test system is Kochia (Kochia scoparia). The test is described as follows: Test A postemergence. The note with it: Bassia scoparia, post-emergence, 240 h, 125 g ai/ha, postemergence, visual injury rating after approximately 10 d; read-out: Kochia plant response rating (0 to 100 scale, 0 no effect, 100 complete control). In short, it runs like this: as §1
The subject of test [12] is Galium (catchweed bedstraw, Galium aparine). Description: Test A postemergence. The note with it: Galium, post-emergence, 240 h, 125 g ai/ha, postemergence, visual injury rating after approximately 10 d; read-out: Galium plant response rating (0 to 100 scale, 0 no effect, 100 complete control). In short, it runs like this: as §1
Test [13] deals with pigweed (Amaranthus retroflexus). The test is described as follows: Test A postemergence. To be noted: Amaranthus retroflexus, post-emergence, 240 h, 125 g ai/ha, postemergence, visual injury rating after approximately 10 d; read-out: Pigweed plant response rating (0 to 100 scale, 0 no effect, 100 complete control). An outline of the steps:
as §1

Test [14] has as its system giant foxtail (Setaria faberii). The test is described as follows: Test A postemergence. To be noted: Setaria faberi, post-emergence, 240 h, 125 g ai/ha, postemergence, visual injury rating after approximately 10 d; read-out: Foxtail, Giant plant response rating (0 to 100 scale, 0 no effect, 100 complete control). In short, it runs like this: as §1
The subject of test [15] is ragweed (common ragweed, Ambrosia elatior). Description: Test A postemergence. To be noted: Ambrosia artemisiifolia, post-emergence, 240 h, 125 g ai/ha, postemergence, visual injury rating after approximately 10 d; read-out: Ragweed plant response rating (0 to 100 scale, 0 no effect, 100 complete control). An outline of the steps: as §1
For the next test, the system named is corn (Zea mays). Description: Test A postemergence. To be noted: Zea mays, post-emergence, 240 h, 125 g ai/ha, postemergence, visual injury rating after approximately 10 d; read-out: Corn plant response rating (0 to 100 scale, 0 no effect, 100 complete control). An outline of the steps: as §1

Consider `CCOc1ccc([C@H]2CN(C)C(=O)[C@@H]2C(=O)Nc2ccccc2F)cc1` [Compound 903], for which the pest or weed control at 125 g/ha in test [1] was 90%; in test [2] it was 0%; in the test on Kochia (Kochia scoparia) [3] it was 20%; in test [4], 0%; in test [5], 90%; in test [6] it was 0%. For the same molecule, the pest or weed control at 125 g/ha came out at 80% in test [8]; 0% in [9]; 0% in [10]; 0% in the test on Kochia (Kochia scoparia) [11]; 10% in test [12]; 0% in test [13]. The pest or weed control at 125 g/ha in test [14] worked out at 80%; in test [15] it was 0%. In addition, the pest or weed control at 500 g/ha was determined as 90% in [1]; 0% in [2]; 90% with Kochia (Kochia scoparia) [3]; 0% in [4]; 90% in test [5]; 0% in test [6]. Moreover, the plant injury at 125 g/ha (in test [7]; with corn (Zea mays)) was 0% in each case.
As to `CCOc1ccc([C@H]2CNC(=O)[C@@H]2C(=O)Nc2cccc(F)c2F)cc1` [Compound 907], the pest or weed control at 125 g/ha in [1] was found to be 70%; in test [2] it was 0%; with Kochia (Kochia scoparia) [3] it was 0%; in test [4], 0%; in test [5], 80%; in test [6], 0%. Further, the pest or weed control at 125 g/ha in test [8] amounted to 50%; in test [9] it was 0%; in test [10] it was 0%; with Kochia (Kochia scoparia) [11], 0%; in [12], 0%; in [13], 0%. Moreover, the pest or weed control at 125 g/ha in test [14] stood at 60%; in [15] it was 0%. Besides, the pest or weed control at 500 g/ha in [1] was found to be 80%; in test [2] it was 0%; with Kochia (Kochia scoparia) [3] it was 20%; in test [4], 0%; in test [5], 90%; in test [6], 0%. Further, the plant injury at 125 g/ha (in test [7]; in the test on corn (Zea mays)) was 0% each time.
Turning to `Cc1cc(C)cc([C@H]2CNC(=O)[C@@H]2C(=O)Nc2ccccc2C(F)(F)F)c1` [Compound 909], the pest or weed control at 125 g/ha stood at 70% in [1]; 0% in test [2]; 0% in the test with Kochia (Kochia scoparia) [3]; 0% in [4]; 90% in test [5]; 0% in test [6]. In addition, the pest or weed control at 125 g/ha in [8] was 50%; in [9], 0%; in test [10], 0%; in the test with Kochia (Kochia scoparia) [11], 0%; in [12], 0%; in test [13] it was 0%. Also, the pest or weed control at 125 g/ha in test [14] was found to be 40%; in [15], 0%. In addition, the pest or weed control at 500 g/ha in test [1] amounted to 80%; in test [2], 30%; with Kochia (Kochia scoparia) [3], 50%; in [4], 0%; in [5], 90%; in test [6], 20%. Moreover, the plant injury at 125 g/ha (in [7]; in the test on corn (Zea mays)) was 0% each time.
With `Cc1cc(C)cc([C@H]2CN(C)C(=O)[C@@H]2C(=O)Nc2ccccc2F)c1` [Compound 910], the pest or weed control at 125 g/ha in test [1] came out at 90%; in test [2] it was 50%; with Kochia (Kochia scoparia) [3] it was 60%; in [4], 0%; in test [5], 90%; in [6], 0%. The pest or weed control at 125 g/ha in [8] was found to be 90%; in test [9], 50%; in test [10], 50%; in the test with Kochia (Kochia scoparia) [11], 20%; in [12], 30%; in test [13], 0%. The values for the pest or weed control at 125 g/ha in [14] and in test [15] were 90% and 10%, respectively. Moreover, the pest or weed control at 500 g/ha in [1] is 100%; in [2] it was 60%; in the test on Kochia (Kochia scoparia) [3] it was 90%; in [4], 30%; in [5], 100%; in test [6] it was 0%. For the same molecule, the plant injury at 125 g/ha in [7] turned out to be 0%; in the test with corn (Zea mays) it was 70%.
